According to patent publication US11292803B2, “Bioreducible N-oxide-based probes for imaging of hypoxia” (THE BOARD OF TRUSTEES OF THE UNIVERSITY OF ILLINOIS, priority 2018, dated 2022):

Experiments:
[1] = Photophysical characterization (absorbance, emission, extinction coefficient, quantum yield); assay type: physicochemical
[2] = tested on: CYP450-rich rat liver microsomes
Protocol: FIG. 4. […] (a) Representative PA image (770 nm) of reaction mixtures incubated under normoxic or hypoxic conditions for 2 h, then quenched with an equal volume of acetonitrile. Dashed lines indicate positioning of FEP tubes. (b) Change in PA signal (770 nm) produced after 2 h incubation of HyP-1 (10 μM) with rat liver microsomes (RLM) (200 μg/mL) and NADPH (50 μM) in normoxic and hypoxic conditions (n=3). (c) Ratiometric fluorescence turn-on after 2 h incubation of HyP-1 (2 μM) with RLM ([…]) and NADPH (50 μM) in normoxic or hypoxic conditions (n=3). (d) Normalized fluorescent turn-on after 1 h hypoxic incubation of HyP-1 (2 μM) with RLM (100 μg/mL) and NADPH (50 μM) under various conditions. Statistical significance represents a comparison to the hypoxic control (n=6). Results with error bars are represented as mean±SD. **p<0.01, ***p<0.001, ****p<0.0001.
The responsiveness of HyP-1 to hypoxia was first evaluated in vitro via fluorescence by incubating HyP-1 with CYP450-rich rat liver microsomes under atmospheric (normoxic) and oxygen-deprived (hypoxic) conditions. […] The PA response of HyP-1 under identical conditions was evaluated by quenching the reaction mixtures with an equal volume of acetonitrile and transferring the solutions into fluorinated ethylene propylene (FEP) tubes, which were inserted into the centre of a 2 cm thick agarose-based tissue-mimicking phantom.
For hypoxic assays only, cuvettes were sealed with septa, then evacuated and filled with N2 (×3) prior to use. Potassium phosphate buffer (0.1 M, pH 7.4) and NADPH (0.5 mM) were degassed with N2 for 30 minutes. For all assays, phosphate buffer (889 μL) rat liver microsomes (200 μg/mL) and HyP-1 (1 μL, 2 mM in DMSO) were added to the cuvette and pre-incubated at 37° C. for 5 minutes. NADPH (100 μL) was added and incubation continued with fluorescence spectra acquisition occurring at the indicated time points. Spectra were acquired according to the following parameters: λex=672, emission range=685-800 nm and λex=750, emission range=760-900 nm. For BIPY and DPI experiments, the compounds were added from stock solutions (1 M BIPY in DMSO and 50 mM DPI in deionized water) following the 5 minute preincubation, and the buffer volume was adjusted such that the total volume in the cuvette was equal to 1 mL. Deactivated microsomes were prepared by heating in a 45° C. water bath for 30 minutes.

4T1 cells = test: Ratiometric fluorescence of cells, IVIS Spectrum; assay type: cell-based, murine; conditions: hypoxic 4T1 cells
Protocol: Ratiometric fluorescence imaging was also performed on 4T1 cells cultured in 6-well plates using an IVIS Spectrum imaging system. Cells were stained with a 5 μM solution of HyP-1 and incubated in either normoxic or hypoxic conditions for 4 hours (FIG. 5c). […] To further verify the in vitro results and determine the cellular factors responsible for HyP-1 reduction, cells were also stained with HyP-1 solutions containing either BIPY or DPI at multiple concentrations and incubated under hypoxic conditions.
Authenticated 4T1 cells were purchased from ATCC. Cells were grown in RPMI 1640 medium supplemented with 10% fetal bovine serum. Cells were cultured at 37° C. in 5% CO2 and 20% 02 for normoxic conditions. Hypoxic cell culture was performed by incubating cells in a sealed container with a Mitsubishi AnaeroPack™ anaerobic gas generator. Hypoxic conditions were verified with the use of a Mitsubishi RT Anaero-Indicator.
For cellular imaging using the IVIS Spectrum imaging system, cells were plated in a 6-well plate at an initial density of 1.7×10^4 cells/mL and allowed to grow until 60-80% confluent (approximately 3 days). Media was removed and cells were washed with PBS. A […] solution of HyP-1 in serum-free medium was added, and cells were incubated under normoxic or hypoxic conditions for 4 hours. For BIPY and DPI experiments, the staining solution was supplemented with the compound at the appropriate concentration, and ratiometric turn-on was reported relative to a vehicle control. Images were obtained using excitation and emission filter sets of 675/720 nm and 745/800 nm. Regions of interest (ROIs) were drawn around cell-containing wells, and ratiometric signal was calculated by determining the ratio of radiant efficiency corresponding to 800 nm and 720 nm emissions.

ischemic hindlimb tissue = test: In vivo fluorescence imaging of hindlimb ischemia model; set-up: species or system BALB/c mice; conditions: 5 mM co-administered, ischemic hindlimb
Protocol: To visualize the response of HyP-1 in a model of rapidly developing hypoxia, a murine hindlimb ischemia model of peripheral artery disease was employed. Ischemia was induced in the right hindlimb of BALB/c mice via ligation of the femoral artery. […] After a 1-hour recovery period, HyP-1 (50 μL, 50 μM) was administered via intramuscular injection into both hindlimbs of the mouse. To visualize the time-dependent response of HyP-1 in the ischemic and non-ischemic tissue, ratiometric fluorescence imaging was performed over the course of 1 hour immediately following injection. […]
All in vivo imaging experiments were performed with the approval of the Institutional Animal Care and Use Committee of the University of Illinois at Urbana-Champaign, following the principles outlined by the American Physiological Society on research animal use. […] Animals that underwent unsuccessful surgery as determined by laser Doppler perfusion imaging were excluded from analysis.
Images were obtained using epi-fluorescence with excitation filters of 675 and 745 and corresponding emission filters of 720 and 800, respectively. […] ROIs of equal area were drawn around signals, and the total radiant efficiency in each ROI was determined. Ratiometric signal was calculated by determining the ratio of radiant efficiency corresponding to 800 nm and 720 nm emissions.

SMILES	Φ ([1]; Table 2)	ε ([1]; Table 2)	λabs ([1]; Table 2) [nm]	further results
F[B-]1(F)n2c(-c3ccc(N4CCOCC4)cc3)cc(-c3ccccc3)c2N=C2C(c3ccccc3)=CC(c3ccc(N4CCOCC4)cc3)=[N+]21 [red-rHyP-5]	0.085	7.6 × 10^4 M^−1 · cm^1	758	–
CCN(CC)c1ccc(C2=[N+]3C(=Nc4c(-c5ccccc5)cc(-c5ccc(N(CC)CC)cc5)n4[B-]3(F)F)C(c3ccccc3)=C2)cc1 [red-rHyP-1, 4,4′-(5,5-difluoro-1,9-diphenyl-5H-4λ^4,5λ^4-dipyrrolo[1,2-c:2′,1′-f][1,3,5,2]triazaborinine-3,7-diyl)bis(N,N-diethylaniline)]	0.013	9.9 × 10^4 M^−1 · cm^1	818	–
CN(C)c1ccc(C2=[N+]3C(=Nc4c(-c5ccccc5)cc(-c5ccc(N(C)C)cc5)n4[B-]3(F)F)C(c3ccccc3)=C2)cc1 [red-rHyP-2]	0.023	8.2 × 10^4 M^−1 · cm^1	798	–
CCCN(CCC)c1ccc(C2=[N+]3C(=Nc4c(-c5ccccc5)cc(-c5ccc([N+]([O-])(CCC)CCC)cc5)n4[B-]3(F)F)C(c3ccccc3)=C2)cc1 [rHyP-3]	0.013	8.0 × 10^4 M^−1 · cm^1	747	–
CC[N+]([O-])(CC)c1ccc(-c2cc(-c3ccccc3)c3n2[B-](F)(F)[N+]2=C(c4ccccc4)C=C(c4ccccc4)C2=N3)cc1 [HyP-650, 4-(5,5-difluoro-1,7,9-triphenyl-5H-54,64-dipyrrolo[1,2-c:2′,1′-f][1,3,5,2]triazaborinin-3-yl)-N,N-diethylaniline oxide]	–	–	–	Φ (fluorescence quantum yield) ([1]; in CHCl3 (Table 3)): 0.027; ε ([1]; in CHCl3 (Table 3)): 4.0 × 10^4 M^−1 · cm^1; λabs ([1]; in CHCl3 (Table 3)): 650 nm
c1ccc(-c2ccccn2)nc1 [BIPY, 2,2′-bipyridine, reference compound]	–	–	–	effect on HyP-1 turn-on response / reduction by rat liver microsomes [2]: no significant inhibition; effect on cellular response to HyP-1 (4T1 cells; 1 mM): no effect; effect on ratiometric fluorescence of HyP-1 in cells (4T1 cells; 5 mM): only slight reduction; ratiometric fluorescence enhancement with co-administration versus HyP-1 alone (ischemic hindlimb tissue): statistically indistinguishable
F[B-]1(F)n2c(-c3ccc(N4CCCCC4)cc3)cc(-c3ccccc3)c2N=C2C(c3ccccc3)=CC(c3ccc(N4CCCCC4)cc3)=[N+]21 [red-rHyP-4]	0.017	7.6 × 10^4 M^−1 · cm^1	787	–
CCN(CC)c1ccc(-c2cc(-c3ccccc3)c3n2[B-](F)(F)[N+]2=C(c4ccccc4)C=C(c4ccccc4)C2=N3)cc1 [red-HyP-650, 4-(5,5-difluoro-1,7,9-triphenyl-5H-54,64-dipyrrolo[1,2-c:2′,1′-f][1,3,5,2]triazaborinin-3-yl)-N,N-diethylaniline]	–	–	–	Φ (fluorescence quantum yield) ([1]; in CHCl3 (Table 3)): 0.069; ε ([1]; in CHCl3 (Table 3)): 8.1 × 10^4 M^−1 · cm^1; λabs ([1]; in CHCl3 (Table 3)): 740 nm
[Cl-].c1ccc([I+]c2ccccc2)cc1 [DPI, diphenyliodonium chloride, reference compound]	–	–	–	effect on HyP-1 turn-on response / reduction by rat liver microsomes [2]: inhibition of HyP-1 reduction was achieved; inhibition of HyP-1 ratiometric fluorescence in cells (4T1 cells; multiple concentrations (100, 500 μM)): significant dose-dependent inhibition
CCCN(CCC)c1ccc(C2=[N+]3C(=Nc4c(-c5ccccc5)cc(-c5ccc(N(CCC)CCC)cc5)n4[B-]3(F)F)C(c3ccccc3)=C2)cc1 [red-rHyP-3]	0.010	9.3 × 10^4 M^−1 · cm^1	826	–
CN(C)c1ccc(C2=[N+]3C(=Nc4c(-c5ccccc5)cc(-c5ccc([N+](C)(C)[O-])cc5)n4[B-]3(F)F)C(c3ccccc3)=C2)cc1 [rHyP-2]	0.021	4.6 × 10^4 M^−1 · cm^1	738	–
[O-][N+]1(c2ccc(-c3cc(-c4ccccc4)c4n3[B-](F)(F)[N+]3=C(c5ccc(N6CCCCC6)cc5)C=C(c5ccccc5)C3=N4)cc2)CCCCC1 [rHyP-4]	0.011	9.1 × 10^4 M^−1 · cm^1	748	–
[O-][N+]1(c2ccc(-c3cc(-c4ccccc4)c4n3[B-](F)(F)[N+]3=C(c5ccc(N6CCOCC6)cc5)C=C(c5ccccc5)C3=N4)cc2)CCOCC1 [rHyP-5]	0.049	9.2 × 10^4 M^−1 · cm^1	718	–
CCN(CC)c1ccc(C2=[N+]3C(=Nc4c(-c5ccccc5)cc(-c5ccc([N+]([O-])(CC)CC)cc5)n4[B-]3(F)F)C(c3ccccc3)=C2)cc1 [rHyP-1, 4-(7-(4-(diethylamino)phenyl)-5,5-difluoro-1,9-diphenyl-5H-5λ^4,6λ^4-dipyrrolo[1,2-c:2′,1′-f][1,3,5,2]triazaborinin-3-yl)-N,N-diethylaniline oxide]	0.013	5.8 × 10^4 M^−1 · cm^1	749	–
